Reference: patent US8097733B2, “Pyrazole derivatives as 5-LO-inhibitors” (Pfizer Inc., priority 2007, dated 2012)

Columns and labels:
recombinant human 5-LOX = biological target: T1, recombinant human 5-LOX (Homo sapiens, UniProt P09917); experiment: Fluorescence Intensity 5-LOX Enzyme Assay; assay type: biochemical; details: crude lysate of recombinant human 5-LOX; highest inhibitor concentration tested typically 25 μM
T1 sequence (P09917 1-674): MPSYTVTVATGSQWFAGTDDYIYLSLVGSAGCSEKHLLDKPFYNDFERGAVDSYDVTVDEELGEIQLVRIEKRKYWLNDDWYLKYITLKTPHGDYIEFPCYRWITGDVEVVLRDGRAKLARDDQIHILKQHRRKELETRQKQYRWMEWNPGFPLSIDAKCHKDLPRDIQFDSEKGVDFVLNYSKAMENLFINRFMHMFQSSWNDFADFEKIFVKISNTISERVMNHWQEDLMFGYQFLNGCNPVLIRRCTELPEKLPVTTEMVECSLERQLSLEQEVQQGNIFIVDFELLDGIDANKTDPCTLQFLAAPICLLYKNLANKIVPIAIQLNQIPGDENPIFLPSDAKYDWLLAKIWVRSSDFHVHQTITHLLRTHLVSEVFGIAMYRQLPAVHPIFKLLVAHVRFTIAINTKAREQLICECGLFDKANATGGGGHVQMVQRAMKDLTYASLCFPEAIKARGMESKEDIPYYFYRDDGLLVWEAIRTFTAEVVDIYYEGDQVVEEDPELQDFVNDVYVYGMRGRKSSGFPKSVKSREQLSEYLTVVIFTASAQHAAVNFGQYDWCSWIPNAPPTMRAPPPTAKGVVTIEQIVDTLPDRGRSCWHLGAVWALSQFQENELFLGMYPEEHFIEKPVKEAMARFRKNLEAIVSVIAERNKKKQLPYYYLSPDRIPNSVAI
Text: Bio Data Assays for Allergic and Non Allergic Airways Diseases Fluorescence Intensity 5-LOX Enzyme Assay
The enzyme assay is based on the oxidation of the non-fluorescent compound 2′7′-dichlorodihydrofluorescein diacetate (H2DCFDA) to the fluorescent 2′,7′-dichlorofluorescein by 5-LOX in an arachidonic acid-dependent reaction. Ester cleavage of the acetate groups of the substrate H2DCFDA must occur prior to oxidation. This is achieved through use of a crude cell lysate preparation of recombinant human 5-LOX. The enzyme assay ([…]) contained 50 mM Tris (pH 7.5), 2 mM CaCl2, 2 mM EDTA, 3 μM arachidonic acid (Nu-Chek Prep; #S-1133), 10 μM ATP, 10 μM H2DCFDA (Invitrogen; #D399), inhibitor (varying concentration) and recombinant human 5-LOX enzyme (1.25 μL crude lysate per well).
Inhibitors (dissolved in DMSO) were plated into a 384-well assay plate (Corning #3654) at 1 μL followed by a 20 μL addition of a solution containing 5-LO enzyme and H2DCFDA. Enzyme and H2DCFDA were pre-incubated for 5 min to allow time for acetate group cleavage of the dye prior to addition to the assay plate. After a 10 min pre-incubation of inhibitor and enzyme/dye mix, the assay was initiated by the addition of a substrate solution containing arachidonic acid and ATP. The enzymatic reaction was run for 20 min at room temperature and terminated by the addition of 40 μL of acetonitrile. Assay plates were read in a plate reader using standard wavelengths for fluorescein. IC50s of inhibitors were calculated using a 4-parameter fit using 7 inhibitor concentrations in duplicate with 3-fold serial dilutions. Controls on each plate included no inhibitor (zero percent effect) and 25 μM C J-13610 (one hundred percent effect). The highest inhibitor concentration tested was typically 25 μM. The final DMSO concentration in the assay was 2.5%.

[1] = test system: human whole blood (leukotriene and prostaglandin levels); experiment: Eicosanoid production from human whole blood; assay type: cell-based; details: human whole blood stimulated with calcium ionophore A23187 and arachidonic acid; ELISA
Experimental: Human whole blood is collected in 10 ml heparin tubes (Vacutainer, Becton Dickenson). Collected blood is pooled and 80 μL is dispensed into each well of 384 well polypropylene plates. A PlateMate is used to add 2 μL of compound solution in DMSO to the 80 μL of blood in the polypropylene plates. The plate, with blood and compound added, is incubated at room temperature for 10 minutes. 2 μL of a calcimycin (800 ng/ml) (A23187 C-7522, Sigma) and arachidonic acid (30 μM) (NU-Chek PREP, INC. S-1133) solution in 60% ethanol is then added to the blood using a Micromultidrop. The plates are then incubated at 37° C. in a shallow water bath for 15 minutes. Plates are then spun at 800 g for 10 minutes at 4° C. Supernatant is removed and assayed by Elisa (Caymen Chemical).
Eicosanoid Production from Human Whole Blood:
Human whole blood was collected from healthy or asthmatic human donors in 10 ml heparinized tubes (Vacutainer tubes; Becton Dickenson, Franklin Lakes, N.J.). Collected blood was pooled and 80 μL was dispensed into each well of 384 well polypropylene plates using a Multi-prop™ 384-well dispenser (Titertek, Huntsville, Ala.). Varying concentrations of compounds were dissolved in DMSO then 2 μL/well was added to the blood using a PlateMate Plus™ automated pipetting station (Matrix Technologies, Hudson, N.H.). The compounds were preincubated with the blood at room temperature for 10 minutes followed by stimulation with 40 μM calcium ionophore (A23187, Sigma Chemical Co, St. Louis, Mo., Cat. # C-7522) and 30 μM arachidonic acid (S-1133, NU-Chek PREP, Inc., Elysian, MN, Cat. # S-1133) dissolved in 60% ethanol. After 15 min incubation at 37° C. in a shallow water bath, the blood was centrifuged at 8009 for 10 minutes at 4° C., the supernatants collected, and leukotriene and prostaglandin levels measured by ELISA according to the manufacturer's directions (Cayman Chemical Company, Ann Arbor, Mich.). The assay was performed at a final concentration of 2.5% DMSO.

| IC50 (recombinant human 5-LOX) [nM] | IC50 [1] [nM] | Compound |
| --- | --- | --- |
| 12200 | – | C[C@@H]1C[C@](C(N)=O)(c2ccc(F)c(Sc3ccc(-c4ccnn4C)cc3)c2)CCO1 [Example 75, (2R,4S)-4-(4-fluoro-3-{[4-(1-methyl-1H-pyrazol-5-yl)phenyl]thio}phenyl)-2-methyltetrahydro-2H-pyran-4-carboxamide] |
| 138 | 866 | COc1ccc(C2(C(N)=O)CCOCC2)cc1Sc1ccc(-c2ccnn2C)cc1 [Example 44, 4-(4-methoxy-3-(4-(1-methyl-1H-pyrazol-5-yl)phenylthio)phenyl)-tetrahydro-2H-pyran-4-carboxamide] |
| 7770 | 676 | Cn1nccc1-c1ncc(Sc2cccc(C3(C#N)CCOCC3)c2)cc1Cl [Example 47, 4-(3-{[5-chloro-6-(1-methyl-1H-pyrazol-5-yl)pyridin-3-yl]thio}phenyl)tetrahydro-2H-pyran-4-carbonitrile] |
| 3220 | 1170 | Cn1nccc1-c1ccc(Sc2cccc(C3(C(N)=O)CCOCC3)c2)c(C#N)c1 [Example 88, 4-(3-{[2-cyano-4-(1-methyl-1H-pyrazol-5-yl)phenyl]thio}phenyl)tetrahydro-2H-pyran-4-carboxamide] |
| 60.7 | 394 | Cn1nccc1C(=O)c1ccc(Sc2cccc(C3(C(N)=O)CCOCC3)c2)cc1C(F)(F)F [Example 37, 4-[3-({4-[(1-methyl-1H-pyrazol-5-yl)carbonyl]-3-(trifluoromethyl)phenyl}thio)phenyl]tetrahydro-2H-pyran-4-carboxamide] |
| 324 | 565 | CCNC(=O)C1(c2cccc(Sc3ccc(-c4ccnn4C)cc3)c2)CCOCC1 [Example 86, N-ethyl-4-(3-{[4-(1-methyl-1H-pyrazol-5-yl)phenyl]thio}phenyl)tetrahydro-2H-pyran-4-carboxamide] |
| 608 | 1400 | NC(=O)C1(c2cccc(Sc3ccc(-c4[nH]ncc4Br)cc3)c2)CCOCC1 [Example 60, 4-(3-{[4-(4-bromo-1H-pyrazol-5-yl)phenyl]thio}phenyl)tetrahydro-2H-pyran-4-carboxamide] |
| 1100 | 1010 | Cn1nccc1-c1ccc(Sc2cccc(C3(C(N)=O)CCOCC3)c2Cl)cc1 [Example 87, 4-(2-chloro-3-{[4-(1-methyl-1H-pyrazol-5-yl)phenyl]thio}phenyl)tetrahydro-2H-pyran-4-carboxamide] |
| 575 | 913 | COc1ccc(C2(C#N)CCOCC2)cc1Sc1ccc(-c2ccnn2C)cc1 [Example 43, 4-(4-methoxy-3-(4-(1-methyl-1H-pyrazol-5-yl)phenylthio)phenyl)-tetrahydro-2H-pyran-4-carbonitrile] |
| 28.4 | 690 | C[C@H]1C[C@@](C(N)=O)(c2cccc(Sc3ccc(-c4ccnn4C)cc3F)c2F)CCO1 [Example 26, (2S,4R)-4-(2-fluoro-3-(2-fluoro-4-(1-methyl-1H-pyrazol-5-yl)phenylthio)phenyl)-2-methyl-tetrahydro-2H-pyran-4-carboxamide] |
| 3310 | – | C[C@H]1C[C@](C(N)=O)(c2cccc(Sc3ccc(-c4ccnn4C)cc3)c2F)CCO1 [Example 79, (2S,4S)-4-(2-fluoro-3-{[4-(1-methyl-1H-pyrazol-5-yl)phenyl]thio}phenyl)-2-methyltetrahydro-2H-pyran-4-carboxamide] |
| ≥ 25000 | – | Cn1nccc1-c1ccc([S+]([O-])c2cccc(C3(C(N)=O)CCOCC3)c2)cc1Cl (stereo not drawn) [Example 89, 4-(3-{[3-chloro-4-(1-methyl-1H-pyrazol-5-yl)phenyl]sulfinyl}phenyl)tetrahydro-2H-pyran-4-carboxamide] |
| ≥ 25000 | – | C[C@H]1C[C@](C#N)(c2ccc(F)c(Sc3ccc(-c4ccnn4C)cc3)c2)CCO1 [Example 74, (2S,4S)-4-(4-fluoro-3-{[4-(1-methyl-1H-pyrazol-5-yl)phenyl]thio}phenyl)-2-methyltetrahydro-2H-pyran-4-carbonitrile] |
| 1590 | 3350 | Cn1nccc1C(=O)c1ccc(Sc2cccc(C3(C(N)=O)CCOCC3)c2)cn1 [Example 69, 4-[3-({6-[(1-methyl-1H-pyrazol-5-yl)carbonyl]pyridin-3-yl}thio)phenyl]tetrahydro-2H-pyran-4-carboxamide] |
| 109 | 6360 | CNC(=O)C1(c2cccc(Sc3ccc(C(=O)c4ccnn4C)cc3)c2)CCOCC1 [Example 72, N-methyl-4-[3-({4-[(1-methyl-1H-pyrazol-5-yl)carbonyl]phenyl}thio)phenyl]tetrahydro-2H-pyran-4-carboxamide] |
| 6380 | – | C[C@H]1C[C@](C(N)=O)(c2ccc(F)c(Sc3ccc(-c4ccnn4C)cc3)c2)CCO1 [Example 77, (2S,4S)-4-(4-fluoro-3-{[4-(1-methyl-1H-pyrazol-5-yl)phenyl]thio}phenyl)-2-methyltetrahydro-2H-pyran-4-carboxamide] |
| 10300 | – | C[C@@H]1C[C@@](C#N)(c2cccc(Sc3ccc(-c4ccnn4C)cc3)c2)CCO1 [Example 83, (2R,4R)-2-methyl-4-(3-{[4-(1-methyl-1H-pyrazol-5-yl)phenyl]thio}phenyl)tetrahydro-2H-pyran-4-carbonitrile] |
| 7560 | – | C[C@H]1C[C@](C(N)=O)(c2cccc(Sc3ccc(-c4ccnn4C)cc3)c2)CCO1 [Example 81, (2S,4S)-2-methyl-4-(3-{[4-(1-methyl-1H-pyrazol-5-yl)phenyl]thio}phenyl)tetrahydro-2H-pyran-4-carboxamide] |
| ≥ 25000 | – | Cn1nccc1C(=O)c1ccc([S+]([O-])c2cccc(C3(C(N)=O)CCOCC3)c2)cc1 (stereo not drawn) [Example 66, 4-[3-({4-[(1-methyl-1H-pyrazol-5-yl)carbonyl]phenyl}sulfinyl)phenyl]tetrahydro-2H-pyran-4-carboxamide] |
| 3540 | – | Cn1nccc1-c1ccc(Sc2cccc(C3(C(N)=O)CCOC(C)(C)C3)c2)cc1 (stereo not drawn) [Example 80, 2,2-dimethyl-4-(3-{[4-(1-methyl-1H-pyrazol-5-yl)phenyl]thio}phenyl)tetrahydro-2H-pyran-4-carboxamide] |
| 2750 | – | Cn1nccc1C(=O)c1ccc(Sc2cccc(C3(C(N)=O)CCOCC3)c2)c(C#N)c1 [Example 85, 4-[3-({2-cyano-4-[(1-methyl-1H-pyrazol-5-yl)carbonyl]phenyl}thio)phenyl]tetrahydro-2H-pyran-4-carboxamide] |
| 2230 | – | C[C@H]1C[C@](C#N)(c2cccc(Sc3ccc(-c4ccnn4C)cc3)c2)CCO1 [Example 84, (2S,4S)-2-methyl-4-(3-{[4-(1-methyl-1H-pyrazol-5-yl)phenyl]thio}phenyl)tetrahydro-2H-pyran-4-carbonitrile] |
